According to PubChem BioAssay AID330 (DTP/NCI, 2004):
“And” between values parts separate entries of the source, which are not always exact repeats. Equal values may be shown once. Inconclusive results and toxic doses are left out.

Tested on: P388 leukemia ip, CD2F1 mice, survival T/C
Experiment: NCI In Vivo Anticancer Drug Screen. Data for tumor model P388 Leukemia (intraperitoneal) in CD2F1 (CDF1) mice
Settings: endpoint: median survival time, higher = longer survival
In short: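 Mice carrying the transplanted tumor received test compound or vehicle. Survival was recorded in each group, and the value is the treated-group measurement divided by that of the vehicle-treated control group.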

[1] = dose: 60.0 mg/kg/injection, schedule: Q01DX005 (ip), vehicle: saline with Tween-80
[2] = dose: 120.0 mg/kg/injection, schedule: Q01DX005 (ip), vehicle: saline with Tween-80
[3] = dose: 240.0 mg/kg/injection, schedule: Q01DX005 (ip), vehicle: saline with Tween-80

Question: `N#CC1=C(C#N)C(=O)C(Cl)=C(Cl)C1=O` was tested. Which T/C (dose: 3.13 mg/kg/injection, schedule: Q01DX009 (ip), vehicle: saline) did it give?
Answer: Its T/C is 109 % of control.

Question: What about the T/C (dose: 6.25 mg/kg/injection, schedule: Q01DX009 (ip), vehicle: saline) of the same molecule?
Answer: The T/C was 118 % of control.

Question: And the T/C (dose: 6.25 mg/kg/injection, schedule: Q04DX002 (ip), vehicle: saline)?
Answer: The T/C was 95 % of control.

Question: And the T/C (dose: 6.25 mg/kg/injection, schedule: Q04DX003 (ip), vehicle: saline)?
Answer: Its T/C is 95 % of control.

Question: And the T/C (dose: 12.5 mg/kg/injection, schedule: Q01DX009 (ip), vehicle: saline)?
Answer: Its T/C is 118 % of control.

Question: What about the T/C (dose: 12.5 mg/kg/injection, schedule: Q04DX002 (ip), vehicle: saline) of the same molecule?
Answer: Its T/C is 109 % of control.

Question: And the T/C (dose: 12.5 mg/kg/injection, schedule: Q04DX003 (ip), vehicle: saline)?
Answer: Its T/C is 113 % of control.

Question: And the T/C (dose: 25.0 mg/kg/injection, schedule: Q04DX002 (ip), vehicle: saline with Tween-80)?
Answer: Its T/C is 117 % of control.

Question: And the T/C (dose: 25.0 mg/kg/injection, schedule: Q04DX002 (ip), vehicle: saline)?
Answer: The T/C was 116 % of control.

Question: What about the T/C (dose: 62.5 mg/kg/injection, schedule: Q01DX005 (ip), vehicle: saline) of the same molecule?
Answer: Its T/C is 95 % of control.

Question: And the T/C (dose: 125.0 mg/kg/injection, schedule: Q01DX005 (ip), vehicle: saline)?
Answer: The T/C was 113 % of control.

Question: And the T/C (dose: 250.0 mg/kg/injection, schedule: Q01DX005 (ip), vehicle: saline)?
Answer: Its T/C is 94 % of control.

Question: What does the source list for `COc1cc(OC)c2[nH]c3c(c(=O)c2c1)C(=O)c1[nH]c2c(OC)cc(OC)cc2c(=O)c1C3=O`?
Answer: T/C (dose: 50.0 mg/kg/injection, schedule: Q01DX009 (ip), vehicle: Klucel (hydroxypropylcellulose) (HPC)): 109 % of control; T/C (dose: 100.0 mg/kg/injection, schedule: Q01DX009 (ip), vehicle: Klucel (hydroxypropylcellulose) (HPC)): 105 % of control; T/C (dose: 200.0 mg/kg/injection, schedule: Q01DX009 (ip), vehicle: Klucel (hydroxypropylcellulose) (HPC)): 108 % of control

Question: Which results are given for `COc1ccccc1C1COC(c2ccccc2)(c2ccccc2)S1` (configuration not stated)?
Answer: T/C (dose: 25.0 mg/kg/injection, schedule: Q01DX009 (ip), vehicle: saline): 108 % of control; T/C (dose: 50.0 mg/kg/injection, schedule: Q01DX009 (ip), vehicle: saline): 108 % of control; T/C (dose: 100.0 mg/kg/injection, schedule: Q01DX009 (ip), vehicle: saline): 108 % of control

Question: How did the T/C (dose: 0.62 mg/kg/injection, schedule: Q01DX009 (ip), vehicle: Klucel (hydroxypropylcellulose) (HPC)) turn out when `COc1cc2c(c(OC)c1OC)-c1ccc(OC)c(=O)cc1C(=O)CC2` was run?
Answer: The T/C was 115 % of control.

Question: And the T/C (dose: 5.0 mg/kg/injection, schedule: Q01DX009 (ip), vehicle: Klucel (hydroxypropylcellulose) (HPC))?
Answer: The T/C was 157 % of control.

Question: Which T/C (dose: 1.56 mg/kg/injection, schedule: Q01DX009 (ip), vehicle: distilled water + Tween-80) does the source give for `CC(C)CCCCCCCCCCCCC(=O)NCC(=O)NC1C(C)OC(Nc2ncnc3c2ncn3C)C(O)C1O` (configuration not stated) here?
Answer: The T/C was 98 % of control.

Question: And the T/C (dose: 3.13 mg/kg/injection, schedule: Q01DX009 (ip), vehicle: distilled water + Tween-80)?
Answer: Its T/C is 95 % of control.

Question: And the T/C (dose: 6.25 mg/kg/injection, schedule: Q01DX009 (ip), vehicle: distilled water + Tween-80)?
Answer: The T/C was 101 % of control.

Question: What about the T/C (dose: 12.5 mg/kg/injection, schedule: Q01DX009 (ip), vehicle: distilled water + Tween-80) of the same molecule?
Answer: The T/C was 98 % of control.

Question: And the T/C (dose: 25.0 mg/kg/injection, schedule: Q01DX009 (ip), vehicle: distilled water + Tween-80)?
Answer: The T/C was 90 % of control.

Question: And the T/C (dose: 50.0 mg/kg/injection, schedule: Q01DX009 (ip), vehicle: distilled water + Tween-80)?
Answer: The T/C was 91 % of control.

Question: Which results are given for `COC1NC(=S)N(C2CCCCC2)C1(C)C` (configuration not stated)?
Answer: T/C (dose: 50.0 mg/kg/injection, schedule: Q01DX009 (ip), vehicle: suspension in saline): 97 % of control; T/C (dose: 100.0 mg/kg/injection, schedule: Q01DX009 (ip), vehicle: suspension in saline): 97 % of control; T/C (dose: 200.0 mg/kg/injection, schedule: Q01DX009 (ip), vehicle: suspension in saline): 100 % of control

Question: Which results are given for `O=c1[nH]nc(SCc2ccc(Cl)cc2)c(=O)[nH]1`?
Answer: T/C (dose: 25.0 mg/kg/injection, schedule: Q01DX005 (ip), vehicle: Klucel (hydroxypropylcellulose) (HPC)): 92 % of control; T/C (dose: 50.0 mg/kg/injection, schedule: Q01DX005 (ip), vehicle: Klucel (hydroxypropylcellulose) (HPC)): 91 % of control; T/C (dose: 100.0 mg/kg/injection, schedule: Q01DX005 (ip), vehicle: Klucel (hydroxypropylcellulose) (HPC)): 90 % of control; T/C (dose: 200.0 mg/kg/injection, schedule: Q01DX005 (ip), vehicle: Klucel (hydroxypropylcellulose) (HPC)): 87 % of control

Question: Which results are given for `CCOC(=O)C1(C(=O)OCC)C(C)CC(=O)N1c1ccccc1OC` (configuration not stated)?
Answer: T/C [1]: 104 % of control; T/C [2]: 100 % of control; T/C [3]: 95 % of control

Question: Which results are given for `Nc1c(Br)cc(Br)c2c1C(=O)c1ccccc1-2`?
Answer: T/C (dose: 50.0 mg/kg/injection, schedule: Q01DX005 (ip), vehicle: saline with Tween-80): 98 % of control; T/C (dose: 100.0 mg/kg/injection, schedule: Q01DX005 (ip), vehicle: saline with Tween-80): 91 % of control; T/C (dose: 200.0 mg/kg/injection, schedule: Q01DX005 (ip), vehicle: saline with Tween-80): 96 % of control

Question: What does the source list for `Cc1ccc2c(c1)sc(C)[n+]2CCO`?
Answer: T/C [1]: 100 % of control; T/C [2]: 101 % of control; T/C [3]: 101 % of control

Question: For `CN1C(=O)/C(=C2\SC(=O)N(Cc3nc4ccccc4[nH]3)C2=O)c2cc(Br)ccc21`, which T/C (dose: 100.0 mg/kg/injection, schedule: Q01DX001 (ip), vehicle: Klucel (hydroxypropylcellulose) (HPC)) is on record?
Answer: The T/C was 98 % of control.

Question: What about the T/C (dose: 200.0 mg/kg/injection, schedule: Q01DX001 (ip), vehicle: Klucel (hydroxypropylcellulose) (HPC)) of the same molecule?
Answer: The T/C was 95 % of control.

Question: What about the T/C (dose: 400.0 mg/kg/injection, schedule: Q01DX001 (ip), vehicle: Klucel (hydroxypropylcellulose) (HPC)) of the same molecule?
Answer: Its T/C is 88 % of control.

Question: What does the source list for `COC(=O)Nc1cnc(C)c(C)c1-c1ccc(OC)c(OC)c1OCc1ccccc1`?
Answer: T/C (dose: 0.05 mg/kg/injection, schedule: Q01DX009 (ip), vehicle: water): 96 % of control; T/C (dose: 0.1 mg/kg/injection, schedule: Q01DX009 (ip), vehicle: water): 111 % of control; T/C (dose: 0.2 mg/kg/injection, schedule: Q01DX009 (ip), vehicle: water): 110 % of control; T/C (dose: 0.4 mg/kg/injection, schedule: Q01DX009 (ip), vehicle: water): 104 % of control and 105 % of control; T/C (dose: 0.8 mg/kg/injection, schedule: Q01DX009 (ip), vehicle: water): 106 % of control; T/C (dose: 1.6 mg/kg/injection, schedule: Q01DX009 (ip), vehicle: water): 109 % of control; T/C (dose: 3.2 mg/kg/injection, schedule: Q01DX009 (ip), vehicle: water): 103 % of control; T/C (dose: 6.25 mg/kg/injection, schedule: Q01DX009 (ip), vehicle: other): 103 % of control; T/C (dose: 6.4 mg/kg/injection, schedule: Q01DX009 (ip), vehicle: water): 104 % of control; T/C (dose: 12.5 mg/kg/injection, schedule: Q01DX009 (ip), vehicle: other): 103 % of control; T/C (dose: 25.0 mg/kg/injection, schedule: Q01DX009 (ip), vehicle: other): 104 % of control; T/C (dose: 50.0 mg/kg/injection, schedule: Q01DX009 (ip), vehicle: other): 98 % of control; T/C (dose: 100.0 mg/kg/injection, schedule: Q01DX009 (ip), vehicle: other): 108 % of control; T/C (dose: 200.0 mg/kg/injection, schedule: Q01DX009 (ip), vehicle: other): 99 % of control; T/C (dose: 400.0 mg/kg/injection, schedule: Q01DX009 (ip), vehicle: other): 99 % of control

Question: Which T/C (dose: 12.5 mg/kg/injection, schedule: Q01DX009 (ip), vehicle: saline sonified) does the source give for `O=S1(=O)Cc2c(Br)c(Br)c(Br)c(Br)c2C1` here?
Answer: Its T/C is 109 % of control.

Question: What about the T/C (dose: 25.0 mg/kg/injection, schedule: Q01DX009 (ip), vehicle: saline sonified) of the same molecule?
Answer: Its T/C is 109 % of control.

Question: And the T/C (dose: 50.0 mg/kg/injection, schedule: Q01DX009 (ip), vehicle: saline sonified)?
Answer: The T/C was 109 % of control.

Question: `CCOC(=O)C(C#N)C(=N)C1C(=O)OC2CCCCC21` (configuration not stated) was tested. Which T/C [1] did it give?
Answer: The T/C was 98 % of control.

Question: What about the T/C [2] of the same molecule?
Answer: Its T/C is 100 % of control.

Question: What about the T/C [3] of the same molecule?
Answer: The T/C was 92 % of control.

Question: What does the source list for `CCCC(C)N(CC)CCNc1cc(OC)cc2cccnc12` (configuration not stated)?
Answer: T/C (dose: 50.0 mg/kg/injection, schedule: Q01DX005 (ip), vehicle: saline): 106 % of control; T/C (dose: 100.0 mg/kg/injection, schedule: Q01DX005 (ip), vehicle: saline): 88 % of control

Question: Which results are given for `CCOC(=O)c1ccc2[nH]c(-c3ccc(S(=O)(=O)F)cc3)cc(=O)c2c1`?
Answer: T/C (dose: 12.5 mg/kg/injection, schedule: Q01DX009 (ip), vehicle: saline with Tween-80): 87 % of control; T/C (dose: 25.0 mg/kg/injection, schedule: Q01DX009 (ip), vehicle: saline with Tween-80): 93 % of control; T/C (dose: 50.0 mg/kg/injection, schedule: Q01DX009 (ip), vehicle: saline with Tween-80): 96 % of control; T/C (dose: 100.0 mg/kg/injection, schedule: Q01DX009 (ip), vehicle: saline with Tween-80): 93 % of control
